Consider three molecules from US20080004310A1, “LYOPHILIZED PHARMACEUTICAL COMPOSITION” (priority 2006, published 2008).

Where a name gives a salt, the structure may show the parent alone. Read-outs that look alike come from different tables or passages of the source.

A short description of data set [1]: Accelerated aging of lyophilized composition (assay of active components after reconstitution). It counts as physicochemical. Particulars: accelerated conditions 40° C./75% RH. The method, then:
Aliquots of the clear solution (3 ml) were filtered through a sterilizing 0.22 um filter into lyophilization vials (5 ml). The filled lyophilization vials were topped, but not sealed, with lyophilization stoppers and freeze-dried according the following procedure. The topped vials were placed into a commercial freeze-drier. The temperature of the drier was lowered to about −40° C. and maintained at that temperature for at least 6 hours. […] Following the three temperature increasing steps, the vials were sealed under vacuum, the freeze-drier was returned to normal atmospheric pressure, and the vials were removed from the freeze-drier. In accelerated aging conditions, the active components of the lyophilized compositions of the present invention have an extended shelf live of as much as 120 days. The accelerated aging data for one, three, and four weeks is set out in Table 1. In Table 1, each week of accelerated aging corresponds to about one month of normal aging. [table]

In data set [2] the test system is patient with erectile dysfunction. The data set can be described thus: Treatment of a patient having erectile dysfunction by injection of the reconstituted lyophilized composition. It counts as in vivo. Particulars: for treatment effect on erectile dysfunction: general method of treatment of Example 3, single lyophilized agent only. The source says:
In one embodiment, a lyophilized composition may be used to treat a patient having erectile dysfunction. The lyophilized composition is formed by first providing an erectile inducing amount of at least one lyophilized compound selected from papverine hydrochloride, phentolamine mesylate, and alprostadil. The lyophilized composition is then reconstituted with a pharmaceutically acceptable solvent, such as sterilized water, to produce a reconstituted pharmaceutical solution. The reconstituted pharmaceutical solution is then administered to the patient. Once the lyophilized compounds are reconstituted, the reconstituted pharmaceutical solution may be administered to the patient by a variety of methods, including, but not limited to orally or by injection. In one embodiment, the composition is administered by injection. Any suitable method of injection, such as intracavernosal, intravenous, intraarterial, intramuscular, intraperitoneal, intraportal, intradermal or subcutaneous may be used.
A person, 75 kilogram (kg) […] patient is diagnosed with having erectile dysfunction. The patient is instructed to inject the lypholized preparation of 30 mg/ml papaverine, 1.0 mg/ml phentolamine mesylate, and 10 μg/ml alprostadil on a daily basis, if this is the intended frequency of sexual activity. The lyophilized papaverine, phentolamine, and alprostadil are prepared according to Example 1. The patient is examined after one month.
A 70 kg patient is apparently in good health. They present complaints of a loss of sexual desire and frequent erectile dysfunction. They report that although they are periodically interested in initiating sexual relations, on most occasions they are unable to maintain a high level of interest sufficiently long to initiate or to adequately respond to their spouse's initiating sexual activity. […] 1.0 mg/ml of lyophilized phentolamine is given to […]. The reconstituted phentolamine is injected about 0.5 hours before the patient intended to engage in sexual activity. The patient is examined after one month. They report that they take the drug combination 2-3 times per week.
Following the general method of treatment described in Example 3, non-critical variations are made to the composition of Example 3 such that only 10 μg/ml of lyophilized alprostadil is used.
Following the general method of treatment described in Example 3, non-critical variations are made to the composition of Example 3 such that only 30 mg/ml of lyophilized papaverine hydrochloride is used.

The conditions of data set [3]: general solubility, not lyophilized; cited from earlier work.
Setting [4] is: Week One, each week about one month of normal aging.

With `COc1ccc(Cc2nccc3cc(OC)c(OC)cc23)cc1OC` [Papaverine HCl, papaverine hydrochloride], the “% of Expected” value in data set [1] (Week Four) was 78%; in data set [1] (Week One), 65.7%; in data set [1] (Week Three) it was 67.7%. Besides, the “Assayed Conc.” value in data set [1] (Week Four) was 23.4 mg/mL; in data set [1] (setting [4]), 19.7 mg/mL; in data set [1] (Week Three), 20.3 mg/mL. Besides, in data set [2], the “treatment effect on erectile dysfunction” value is reported as “same positive treatment effect”. Further, the solubility result in data set [3] was “about 30 mg/ml”; in the data set “physchem”, around 90 mg/mL.

As to `CCCCC[C@H](O)/C=C/[C@H]1[C@H](O)CC(=O)[C@@H]1CCCCCCC(=O)O` [Alprostadil, alprostadil], the “% of Expected” value in data set [1] (Week Four) is given as 95%; in data set [1] (Week One) it was 105%; in data set [1] (Week Three) it was 100%. The “Assayed Conc.” value in data set [1] (Week Four) stood at 0.0095 mg/mL; in data set [1] (Week One) it was 0.0105 mg/mL; in data set [1] (Week Three) it was 0.01 mg/mL. Moreover, in data set [2], the “treatment effect on erectile dysfunction” value is recorded as “same positive treatment effect”.

As to `Cc1ccc(N(CC2=NCCN2)c2cccc(O)c2)cc1` [Phentolamine Mesylate, phentolamine mesylate], the figures for the “% of Expected” value in data set [1] (Week Four), in data set [1] (Week One) and in data set [1] (Week Three) were 100%, 100% and 92%, respectively. Besides, the “Assayed Conc.” value in data set [1] (Week Four) was 1.0 mg/mL; in data set [1] (setting [4]), 1.0 mg/mL; in data set [1] (Week Three), “.92 mg/mL”. In addition, the maintenance of erection entry in data set [2] (70 kg patient, 1.0 mg/ml, injected about 0.5 hours before sexual activity, 2-3 times per week, examined after one month) is reported as “no difficulty maintaining an erection to completion of sexual intercourse”. Also, in data set [2] (70 kg patient, 1.0 mg/ml, injected about 0.5 hours before sexual activity, examined after one month), the “sexual desire / motivation” value is reported as “feels motivated to initiate sexual activity”.

One may read the solubility as how much of the substance goes into solution per volume.
